Laboratory results taken from patent US12303845B2, “Method for crystallization of active pharmaceutical ingredients” (Nanoform Finland Oyj, priority 2023, dated 2025).

How the values were obtained:
Assay type in all cases: physicochemical
[1] = Stability tests of solid material (SEM, XRD, HPLC)
Experimental: Solid material was weighted in separate vials (approx. 150 mg of material in each) and transferred to stability chambers. Three conditions were applied: ambient conditions (material in closed vial at RT), 25° C./65% RH and 40° C./75% RH. Material was analyzed at T0 as freshly prepared, T7 ([…]), T14 ([…]) and T30 (30 d) after the initiation of stability studies. SEM, XRD and dissolution/permeability studies were used to evaluate the crystallinity, particle size/morphology and performance of the material.

[2] = Crystallization of amorphous nanosized API in aqueous polymer solution, polymorph/crystallinity by XRD; set-up: key to Polymorph: bulk = same as the API before conversion to amorphous nanoparticles
Experimental: XRPD measurements were carried out using the Malvern PANalytical Empyrean X-ray diffractometer equipped with a Cu Kα (1.54 Å) source, MultiCore optics and a solid-state PIXcel3D detector. By using Kapton tape the samples were attached onto aluminum or polycrystalline silicon sample holders. Dried slurries were measured without further sample preparation under Kapton tape and suspensions were filtered, dried, and filters were attached with double sided tape. The samples were measured in the reflection geometry in a spinning measurement stage. The measurement range was 5-40 (°2θ). The step size and time per step values were varied depending on the counts per second obtained.
Determination of crystallization of API nanoparticles was evaluated via kinetic study of suspension. Accordingly, XRD measurement was done for suspension in different time points.
Amorphous API nanoparticles (budesonide, ezetimibe, ceritinib, and apalutamide) were added as dry powders to aqueous polymer solutions. The mixtures were either • (i) mixed with a magnetic stirrer and ultrasonicated until API was completely surrounded by water (wetted). The stirring was continued for 16-24 h at ambient temperature or • (ii) blended with a metal spatula and allowed to stay at room temperature for 18-24 h.
The suspensions formed were analyzed after 18-24 h. SEM and XRD samples were prepared as described above.

[3] = SEM of crystallized suspensions and dried products (crystal size grade, particle size); set-up: key: 5 = nanocrystals; 1 = large crystals
Experimental: SEM images were captured using the Zeiss Sigma 300 VP SEM instruments. Samples were dispersed into water and filtered with 0.1 μm filter. Filters were dried, transferred to SEM sample holders, and coated with a 5 nm thick layer of platinum. Amorphous API nanoparticles (budesonide, ezetimibe, ceritinib, and apalutamide) were added as dry powders to aqueous polymer solutions. The mixtures were either • (i) mixed with a magnetic stirrer and ultrasonicated until API was completely surrounded by water (wetted). The stirring was continued for 16-24 h at ambient temperature or • (ii) blended with a metal spatula and allowed to stay at room temperature for 18-24 h. The suspensions formed were analyzed after 18-24 h. SEM and XRD samples were prepared as described above. Suspension comprising nanosized APIs prepared as shown above were dried in a vacuum desiccator overnight. The solid materials were grounded to produce powders. The powders were analyzed on XRD and SEM. The powders comprising nanosized APIs were used in the stability, permeability, and dissolution tests as described above.

[4] = HPMC 1 wt.-%, SLS 0.2 wt.-%, mAPI 25 mg/g
[5] = HPMC 1 wt.-%, no SLS, mAPI 25 mg/g
[6] = HPMC 2.5 wt.-%, SLS 0.2 wt.-%, mAPI 25 mg/g
[7] = HPMC 2.5 wt.-%, no SLS, mAPI 25 mg/g
[8] = HPMC 5 wt.-%, SLS 0.2 wt.-%, mAPI 25 mg/g
[9] = HPMC 5 wt.-%, SLS 0.2 wt.-%, mAPI 100 mg/g
[10] = HPMC 5 wt.-%, SLS 0.2 wt.-%, mAPI 150 mg/g
[11] = HPMC 5 wt.-%, no SLS, mAPI 25 mg/g
[12] = HPMC 5 wt.-%, no SLS, mAPI 100 mg/g
[13] = HPMC 5 wt.-%, no SLS, mAPI 150 mg/g
[14] = PVP K30 1 wt.-%, no SLS, mAPI 25 mg/g
[15] = PVP K30 2.5 wt.-%, no SLS, mAPI 25 mg/g
[16] = PVP K30 5 wt.-%, no SLS, mAPI 25 mg/g
[17] = PVPVA 1 wt.-%, SLS 0.2 wt.-%, mAPI 25 mg/g
[18] = PVPVA 1 wt.-%, no SLS, mAPI 25 mg/g polymer solution
[19] = PVPVA 2.5 wt.-%, SLS 0.2 wt.-%, mAPI 25 mg/g
[20] = PVPVA 2.5 wt.-%, no SLS, mAPI 25 mg/g
[21] = PVPVA 5 wt.-%, SLS 0.2 wt.-%, mAPI 25 mg/g
[22] = PVPVA 5 wt.-%, no SLS, mAPI 25 mg/g
[23] = PVPVA 15 wt.-%, SLS 0.2 wt.-%, mAPI 150 mg/g
[24] = PVPVA 15 wt.-%, no SLS, mAPI 150 mg/g
[25] = PVPVA 20 wt.-%, no SLS, mAPI 200 mg/g
[26] = PVPVA 25 wt.-%, SLS 0.2 wt.-%, mAPI 250 mg/g
[27] = PVPVA 25 wt.-%, no SLS, mAPI 250 mg/g
[28] = PVPVA 45 wt.-%, no SLS, mAPI 450 mg/g
[29] = Poloxamer 407 1 wt.-%, no SLS, mAPI 25 mg/g
[30] = Poloxamer 407 2.5 wt.-%, no SLS, mAPI 25 mg/g
[31] = Poloxamer 407 5 wt.-%, no SLS, mAPI 25 mg/g
[32] = Poloxamer 407 1 wt.-%, SLS 0.2 wt.-%, mAPI 25 mg/g
[33] = Poloxamer 407 2.5 wt.-%, SLS 0.2 wt.-%, mAPI 25 mg/g
[34] = Poloxamer 407 5 wt.-%, SLS 0.2 wt.-%, mAPI 25 mg/g
[35] = Poloxamer 407 5 wt.-%, no SLS, mAPI 150 mg/g
[36] = Poloxamer 407 7.5 wt.-%, no SLS, mAPI 150 mg/g
[37] = Poloxamer 407 7.5 wt.-%, no SLS, mAPI 300 mg/g
[38] = Poloxamer 407 10 wt.-%, SLS 0.2 wt.-%, mAPI 25 mg/g
[39] = Poloxamer 407 10 wt.-%, no SLS, mAPI 25 mg/g
[40] = Poloxamer 407 15 wt.-%, SLS 0.2 wt.-%, mAPI 150 mg/g
[41] = Poloxamer 407 15 wt.-%, SLS 0.2 wt.-%, mAPI 300 mg/g
[42] = Poloxamer 407 15 wt.-%, no SLS, mAPI 150 mg/g
[43] = Poloxamer 407 15 wt.-%, no SLS, mAPI 300 mg/g
[44] = Poloxamer 407 15 wt.-%, no SLS, mAPI 450 mg/g

CCCC1O[C@@H]2C[C@H]3[C@@H]4CCC5=CC(=O)C=C[C@]5(C)[C@H]4[C@@H](O)C[C@]3(C)[C@]2(C(=O)CO)O1 (stereo partly drawn) [Bude, budesonide]
Stability of nanocrystalline material over the stability study ([1]; materials prepared according to the disclosure, up to T30, crystallinity confirmed by XRD): stable over the whole stability study | Polymorph [2, 4]: bulk | Polymorph [2, 5]: bulk | Polymorph [2, 6]: bulk | Polymorph [2, 7]: bulk | Polymorph [2, 8]: bulk | Polymorph [2, 9]: bulk | Polymorph [2, 10]: bulk | Polymorph [2, 11]: bulk | Polymorph [2, 12]: bulk | Polymorph [2, 13]: bulk | Polymorph [2, 14]: bulk | Polymorph [2, 15]: bulk | Polymorph [2, 16]: bulk | Polymorph [2, 17]: bulk | Polymorph [2, 18]: bulk | Polymorph [2, 19]: bulk | Polymorph [2, 20]: bulk | Polymorph [2, 21]: bulk | Polymorph [2, 22]: bulk | Polymorph [2, 23]: bulk | Polymorph [2, 24]: bulk | Polymorph [2, 25]: bulk | Polymorph [2, 26]: bulk | Polymorph [2, 27]: bulk | Polymorph [2, 28]: bulk | Polymorph [2, 29]: bulk | Polymorph [2, 30]: buik | Polymorph [2, 31]: bulk | Grade (SEM, visual inspection) [3, 4]: 5 | Grade (SEM, visual inspection) [3, 5]: 5 | Grade (SEM, visual inspection) [3, 6]: 5 | Grade (SEM, visual inspection) [3, 7]: 5 | Grade (SEM, visual inspection) [3, 8]: 5 | Grade (SEM, visual inspection) [3, 9]: 5 | Grade (SEM, visual inspection) [3, 10]: 5 | Grade (SEM, visual inspection) [3, 11]: 5 | Grade (SEM, visual inspection) [3, 12]: 5 | Grade (SEM, visual inspection) [3, 13]: 5 | Grade (SEM, visual inspection) [3, 14]: 3 | Grade (SEM, visual inspection) [3, 15]: 3 | Grade (SEM, visual inspection) [3, 16]: 3 | Grade (SEM, visual inspection) [3, 17]: 4 | Grade (SEM, visual inspection) [3, 18]: 3 | Grade (SEM, visual inspection) [3, 19]: 4 | Grade (SEM, visual inspection) [3, 20]: 2 | Grade (SEM, visual inspection) [3, 21]: 4 | Grade (SEM, visual inspection) [3, 22]: 2 | Grade (SEM, visual inspection) [3, 23]: 5 | Grade (SEM, visual inspection) [3, 24]: 5 | Grade (SEM, visual inspection) [3, 25]: 5 | Grade (SEM, visual inspection) [3, 26]: 5 | Grade (SEM, visual inspection) [3, 27]: 5 | Grade (SEM, visual inspection) [3, 28]: 5 | Grade (SEM, visual inspection) [3, 29]: 1 | Grade (SEM, visual inspection) [3, 30]: 1 | Grade (SEM, visual inspection) [3, 31]: 1

Cc1cc(Nc2ncc(Cl)c(Nc3ccccc3S(=O)(=O)C(C)C)n2)c(OC(C)C)cc1C1CCNCC1 [Cere, ceritinib]
Stability of composition by SEM ([1]; nanosized ceritinib composition, fresh vs stored at room temperature for one month): good stability | Polymorph [2, 7]: amorphous | Polymorph [2, 17]: amorphous | Polymorph [2, 19]: amorphous | Polymorph [2, 20]: amorphous | Polymorph [2, 21]: amorphous | Polymorph ([2]; PVPVA 10 wt.-%, SLS 0.2 wt.-%, mAPI 25 mg/g): amorphous | Polymorph [2, 32]: Form 1 | Polymorph [2, 29]: Form 1 | Polymorph [2, 33]: Form 1 | Polymorph [2, 30]: Form 1 | Polymorph [2, 34]: Form 1 | Polymorph [2, 31]: Form 1 | Polymorph [2, 35]: Form 1 | Polymorph [2, 36]: Form 1 | Polymorph [2, 37]: Form 1 | Polymorph [2, 38]: Form 1 | Polymorph [2, 39]: Form 1 | Polymorph [2, 40]: Form 1 | Polymorph [2, 41]: Form 1 | Polymorph [2, 42]: Form 1 | Polymorph [2, 43]: Form 1 | Polymorph [2, 44]: Form 1 | Grade (SEM, visual inspection) [3, 32]: 5 | Grade (SEM, visual inspection) [3, 29]: 5 | Grade (SEM, visual inspection) [3, 33]: 5 | Grade (SEM, visual inspection) [3, 30]: 5 | Grade (SEM, visual inspection) [3, 34]: 5 | Grade (SEM, visual inspection) [3, 31]: 5 | Grade (SEM, visual inspection) [3, 35]: 3 | Grade (SEM, visual inspection) [3, 36]: 3 | Grade (SEM, visual inspection) [3, 37]: 3 | Grade (SEM, visual inspection) [3, 38]: 5 | Grade (SEM, visual inspection) [3, 39]: 5 | Grade (SEM, visual inspection) [3, 40]: 5 | Grade (SEM, visual inspection) [3, 41]: 5 | Grade (SEM, visual inspection) [3, 42]: 5 | Grade (SEM, visual inspection) [3, 43]: 5 | Grade (SEM, visual inspection) [3, 44]: 5
